Laboratory results: paper PMC4813245, “Discovery of Dual ETA/ETB Receptor Antagonists from Traditional Chinese Herbs through in Silico and in Vitro Screening” (International Journal of Molecular Sciences, 2016)
Read-outs that look alike come from different tables or passages of the source. Non-standard residues stand in square brackets, D forms with d. Residues, ends and D or L forms follow the SMILES beside them.

Columns and labels:
ETB receptor (ETBR) = molecular target: T1, ETB receptor (ETBR) (Homo sapiens, UniProt P24530); assay: ET-1-induced intracellular calcium mobilization (Fluo-4) in HEK293/ETBR cells, antagonist mode; format: cell-based
T1 construct: gene EDNRB
T1 sequence (P24530 27-442): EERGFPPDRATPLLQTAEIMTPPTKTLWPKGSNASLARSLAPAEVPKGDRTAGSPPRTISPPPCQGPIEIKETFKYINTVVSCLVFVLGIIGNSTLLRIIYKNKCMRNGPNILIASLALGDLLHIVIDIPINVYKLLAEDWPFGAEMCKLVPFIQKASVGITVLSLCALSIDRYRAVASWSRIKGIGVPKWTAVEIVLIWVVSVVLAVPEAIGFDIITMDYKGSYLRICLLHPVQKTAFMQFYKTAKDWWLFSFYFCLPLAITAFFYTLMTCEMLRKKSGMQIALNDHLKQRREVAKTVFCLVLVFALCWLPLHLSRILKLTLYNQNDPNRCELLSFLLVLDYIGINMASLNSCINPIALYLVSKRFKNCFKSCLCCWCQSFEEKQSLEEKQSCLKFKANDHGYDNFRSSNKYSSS

ETA receptor (ETAR) = molecular target: T2, ETA receptor (ETAR) (Homo sapiens, UniProt P25101); assay: ET-1-induced intracellular calcium mobilization (Fluo-4) in HEK293/ETAR cells, antagonist mode; format: cell-based
T2 construct: gene EDNRA
T2 sequence (P25101 21-427): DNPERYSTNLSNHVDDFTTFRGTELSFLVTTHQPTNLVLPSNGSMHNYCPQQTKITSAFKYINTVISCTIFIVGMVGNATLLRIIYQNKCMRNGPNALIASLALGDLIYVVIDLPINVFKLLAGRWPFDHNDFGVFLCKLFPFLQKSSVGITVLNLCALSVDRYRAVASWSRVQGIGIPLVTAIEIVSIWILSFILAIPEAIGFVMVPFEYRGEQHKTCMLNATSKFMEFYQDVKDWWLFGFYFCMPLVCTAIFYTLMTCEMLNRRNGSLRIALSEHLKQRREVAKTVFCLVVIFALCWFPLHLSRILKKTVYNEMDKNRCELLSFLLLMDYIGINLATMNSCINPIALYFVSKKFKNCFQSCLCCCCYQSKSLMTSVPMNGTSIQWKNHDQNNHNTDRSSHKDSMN

Row | SMILES | IC50 (ETB receptor (ETBR)) [µM] | IC50 (ETA receptor (ETAR)) [µM] | IC50 (ETB receptor (ETBR); read-out: IC50) [µM]
1 | COc1cccc2c1cc([N+](=O)[O-])c1c(C(=O)O)cc3c(c12)OCO3 [Aristolochic acid A] | 7.4 | 7.91 | –
2 | CCCC[C@@H](NC(=O)[C@@H](Cc1cn(C(=O)OC)c2ccccc12)NC(=O)[C@H](CC(C)(C)C)NC(=O)N1[C@H](C)CCC[C@@H]1C)C(=O)O [BQ-788] | – | – | 5e-05
3 | CC(C)C[C@@H]1NC(=O)[C@@H](C(C)C)NC(=O)[C@@H]2CCCN2C(=O)[C@@H](CC(=O)O)NC(=O)[C@@H](Cc2c[nH]c3ccccc23)NC1=O [BQ-123] (cyclo(L[dW][dD]P[dV])) | – | 0.00027 | –
